Experimental data as given in patent US20250064941A1, “SIGLEC LIGANDS, CONJUGATES, AND METHODS OF USE THEREOF” (Osprey Biopharmaceuticals, Inc., priority 2023, published 2025).

Tests used:
[1] = molecular target: T1, mouse Siglec-2-Fc-Avi (CD22) (Mus musculus, UniProt P35329); assay: SPR binding affinity to mouse CD22; settings: steady-state analysis
T1 construct: made in house
T1 sequence (P35329 22-708 limits assumed): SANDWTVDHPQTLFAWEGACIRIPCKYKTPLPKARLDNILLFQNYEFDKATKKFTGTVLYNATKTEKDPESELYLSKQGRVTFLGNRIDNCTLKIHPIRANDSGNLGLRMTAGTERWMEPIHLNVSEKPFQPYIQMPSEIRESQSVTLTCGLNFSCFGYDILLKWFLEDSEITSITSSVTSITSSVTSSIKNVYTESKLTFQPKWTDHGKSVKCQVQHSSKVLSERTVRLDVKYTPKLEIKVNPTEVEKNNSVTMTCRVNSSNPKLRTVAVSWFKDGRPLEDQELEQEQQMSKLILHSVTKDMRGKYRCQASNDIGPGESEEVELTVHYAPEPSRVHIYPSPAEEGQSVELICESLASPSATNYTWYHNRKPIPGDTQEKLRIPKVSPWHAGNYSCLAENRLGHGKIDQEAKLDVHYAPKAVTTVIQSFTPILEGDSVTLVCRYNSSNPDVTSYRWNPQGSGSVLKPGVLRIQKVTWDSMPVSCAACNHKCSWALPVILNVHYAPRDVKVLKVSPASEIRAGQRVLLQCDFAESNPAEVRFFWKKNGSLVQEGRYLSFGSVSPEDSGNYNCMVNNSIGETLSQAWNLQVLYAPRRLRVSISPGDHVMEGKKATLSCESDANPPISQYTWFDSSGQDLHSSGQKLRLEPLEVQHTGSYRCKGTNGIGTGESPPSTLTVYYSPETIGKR
Outline: (§1)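 Steady-state fits gave the affinities. Before capture on a streptavidin surface, biotinylated CD22 had native sialic acids stripped (SialoExo, 4 hours, 37° C.). Running buffer: 10 mM HEPES pH 7.5, 150 mM NaCl, 0.05% Tween-20, 1% DMSO, with DMSO solvent correction.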

[2] = molecular target: T2, human Siglec-2/CD22 protein (Homo sapiens, UniProt P20273); assay: SPR binding affinity to human CD22; settings: steady-state analysis
T2 construct: purchased Acro Biosystems SI2-H82E3
T2 sequence (P20273 20-847): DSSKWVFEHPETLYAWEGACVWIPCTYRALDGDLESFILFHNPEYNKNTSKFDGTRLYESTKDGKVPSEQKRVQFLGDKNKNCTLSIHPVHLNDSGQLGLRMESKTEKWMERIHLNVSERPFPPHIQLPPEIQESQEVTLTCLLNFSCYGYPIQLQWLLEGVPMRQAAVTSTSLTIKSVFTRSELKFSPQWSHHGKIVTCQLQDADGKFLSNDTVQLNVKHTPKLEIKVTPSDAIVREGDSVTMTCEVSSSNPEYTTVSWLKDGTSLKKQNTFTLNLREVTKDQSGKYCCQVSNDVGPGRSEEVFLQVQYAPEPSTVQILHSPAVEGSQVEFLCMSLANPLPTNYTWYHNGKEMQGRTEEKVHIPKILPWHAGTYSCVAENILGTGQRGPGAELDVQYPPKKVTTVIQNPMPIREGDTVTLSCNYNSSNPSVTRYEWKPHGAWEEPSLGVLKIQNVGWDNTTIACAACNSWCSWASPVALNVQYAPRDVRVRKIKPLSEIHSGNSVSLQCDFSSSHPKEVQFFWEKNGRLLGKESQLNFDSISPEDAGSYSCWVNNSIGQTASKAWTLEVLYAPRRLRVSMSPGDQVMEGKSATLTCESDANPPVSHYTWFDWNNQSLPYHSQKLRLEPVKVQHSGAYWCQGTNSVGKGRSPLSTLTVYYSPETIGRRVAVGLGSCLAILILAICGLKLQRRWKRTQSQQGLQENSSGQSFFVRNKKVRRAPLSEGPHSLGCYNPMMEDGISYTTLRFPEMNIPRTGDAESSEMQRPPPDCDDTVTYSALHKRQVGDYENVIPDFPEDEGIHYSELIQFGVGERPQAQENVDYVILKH
Outline: as §1

[3] = molecular target: cynomolgus Siglec-2/CD22 (Macaca fascicularis, UniProt A0A2K5WCZ6); assay: biochemical; format: binding; settings: SPR, steady-state analysis; read-out: Affinity cyno CD22
Outline: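 Compound binding measured by steady-state SPR analysis, 120 s dissociation, in HEPES-NaCl-Tween buffer pH 7.5 containing 1% DMSO, DMSO solvent-corrected. Surface: cyno CD22, sialic acids first stripped by SialoExo for 4 h at 37° C., then amine-coupled onto CM5.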

Sequence of cynomolgus Siglec-2/CD22 (A0A2K5WCZ6 entry or part of it): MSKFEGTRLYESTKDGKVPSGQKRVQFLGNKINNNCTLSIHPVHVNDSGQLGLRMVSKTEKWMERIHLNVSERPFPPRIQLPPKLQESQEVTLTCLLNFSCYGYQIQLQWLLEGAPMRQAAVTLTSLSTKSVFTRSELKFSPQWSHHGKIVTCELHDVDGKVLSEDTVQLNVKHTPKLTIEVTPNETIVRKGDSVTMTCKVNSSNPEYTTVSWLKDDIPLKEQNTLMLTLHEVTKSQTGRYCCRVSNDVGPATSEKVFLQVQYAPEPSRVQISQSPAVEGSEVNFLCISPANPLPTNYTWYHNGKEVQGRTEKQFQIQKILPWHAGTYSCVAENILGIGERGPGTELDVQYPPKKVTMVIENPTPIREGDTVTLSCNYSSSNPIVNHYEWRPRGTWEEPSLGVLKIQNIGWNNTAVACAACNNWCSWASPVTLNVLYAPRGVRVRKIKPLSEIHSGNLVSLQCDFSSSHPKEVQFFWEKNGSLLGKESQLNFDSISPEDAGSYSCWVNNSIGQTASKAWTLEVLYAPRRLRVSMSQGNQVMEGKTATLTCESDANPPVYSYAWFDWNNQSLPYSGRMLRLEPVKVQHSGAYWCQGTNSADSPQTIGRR

SMILES | Kd [1] | Kd [2] | Kd [3]
C#CCOCCOCCO[C@]1(C(=O)O)C[C@H](O)[C@@H](NC(=O)CO)[C@H]([C@H](O)[C@H](O)CNC(=O)Cn2cc(-c3ccccc3)nn2)O1 [Compound 177, (2R,4S,5R,6R)-6-((1R,2R)-1,2-dihydroxy-3-(2-(4-phenyl-1H-1,2,3-triazol-1-yl)acetamido)propyl)-4-hydroxy-5-(2-hydroxyacetamido)-2-(2-(2-(prop-2-yn-1-yloxy)ethoxy)ethoxy)tetrahydro-2H-pyran-2-carboxylic acid] | > 10 µM | 1 to 10 µM | 1 to 10 µM
C#CCOCCCCCCO[C@]1(C(=O)O)C[C@H](O)[C@@H](NCC(=O)NC)[C@H]([C@H](O)[C@H](O)CNC(=O)Cc2ccc(Cl)cc2)O1 [Compound 181, (2R,4S,5R,6R)-6-((1R,2R)-3-(2-(4-chlorophenyl)acetamido)-1,2-dihydroxypropyl)-4-hydroxy-5-((2-(methylamino)-2-oxoethyl)amino)-2-((6-(prop-2-yn-1-yloxy)hexyl)oxy)tetrahydro-2H-pyran-2-carboxylic acid] | 1 to 10 µM | 1 to 10 µM | 1 to 10 µM
C#CCCOc1ccc(CO[C@]2(C(=O)O)C[C@H](O)[C@@H](NC(=O)CO)[C@H]([C@H](O)[C@H](O)CNC(=O)C(C)(O)c3ccccc3)O2)cc1 (stereo partly drawn) [Compound 169, (2R,4S,5R,6R)-2-((4-(but-3-yn-1-yloxy)benzyl)oxy)-6-((1R,2R)-1,2-dihydroxy-3-(2-hydroxy-2-phenylpropanamido)propyl)-4-hydroxy-5-(2-hydroxyacetamido)tetrahydro-2H-pyran-2-carboxylic acid] | > 10 µM | 1 to 10 µM | 1 to 10 µM
C#CCOCCCCCCO[C@]1(C(=O)O)C[C@H](O)[C@@H](NC(=O)NCC2CC2)[C@H]([C@H](O)[C@H](O)CNC(=O)Cc2ccc(Cl)cc2)O1 [Compound 94, (2R,4S,5R,6R)-6-((1R,2R)-3-(2-(4-chlorophenyl)acetamido)-1,2-dihydroxypropyl)-5-(3-(cyclopropylmethyl)ureido)-4-hydroxy-2-((6-(prop-2-yn-1-yloxy)hexyl)oxy)tetrahydro-2H-pyran-2-carboxylic acid] | 1 to 10 µM | 1 to 10 µM | 1 to 10 µM
C#CCOCCOCCO[C@]1(C(=O)O)C[C@H](O)[C@@H](NC(=O)CO)[C@H]([C@H](O)[C@H](O)CNC(=O)Cc2ccc(-c3cccc(O)c3)cc2)O1 [Compound 78, (2R,4S,5R,6R)-6-((1R,2R)-1,2-dihydroxy-3-(2-(3′-hydroxy-[1,1′-biphenyl]-4-yl)acetamido)propyl)-4-hydroxy-5-(2-hydroxyacetamido)-2-(2-(2-(prop-2-yn-1-yloxy)ethoxy)ethoxy)tetrahydro-2H-pyran-2-carboxylic acid] | 1 to 10 µM | < 1 µM | 1 to 10 µM
C#CCOCCOCCO[C@]1(C(=O)O)C[C@H](O)[C@@H](NC(=O)C(C)(C)O)[C@H]([C@H](O)[C@H](O)CNC(=O)Cc2ccc(-c3ccc(O)cc3)cc2)O1 [Compound 71, (2R,4S,5R,6R)-6-((1R,2R)-1,2-dihydroxy-3-(2-(4′-hydroxy-[1,1′-biphenyl]-4-yl)acetamido)propyl)-4-hydroxy-5-(2-hydroxy-2-methylpropanamido)-2-(2-(2-(prop-2-yn-1-yloxy)ethoxy)ethoxy)tetrahydro-2H-pyran-2-carboxylic acid] | > 10 µM | 1 to 10 µM | 1 to 10 µM
C#CCOCCOCCOCCOCCC(=O)NCCOCCOCCO[C@]1(C(=O)O)C[C@H](O)[C@@H](NC(=O)CO)[C@H]([C@H](O)[C@H](O)CNC(=O)Cc2ccc(Cl)cc2)O1 [Compound 111, (2R,4S,5R,6R)-6-((1R,2R)-3-(2-(4-chlorophenyl)acetamido)-1,2-dihydroxypropyl)-4-hydroxy-5-(2-hydroxyacetamido)-2-((10-oxo-3,6,13,16,19,22-hexaoxa-9-azapentacos-24-yn-1-yl)oxy)tetrahydro-2H-pyran-2-carboxylic acid] | 1 to 10 µM | 1 to 10 µM | < 1 µM

The remaining lines, values ahead:

Kd [1] | Kd [2] | Kd [3] | SMILES
1 to 10 µM | < 1 µM | < 1 µM | C#CCOCCOCCNc1c(NCCCCCCO[C@]2(C(=O)O)C[C@H](O)[C@@H](NC(=O)CO)[C@H]([C@H](O)[C@H](O)CNC(=O)c3cccc(Cl)c3)O2)c(=O)c1=O [Compound 227, (2R,4S,5R,6R)-6-((1R,2R)-3-(3-chlorobenzamido)-1,2-dihydroxypropyl)-2-((6-((3,4-dioxo-2-((2-(2-(prop-2-yn-1-yloxy)ethoxy)ethyl)amino)cyclobut-1-en-1-yl)amino)hexyl)oxy)-4-hydroxy-5-(2-hydroxyacetamido)tetrahydro-2H-pyran-2-carboxylic acid]
1 to 10 µM | 1 to 10 µM | 1 to 10 µM | C#CCOCCCCCCO[C@]1(C(=O)O)C[C@H](O)[C@@H](NC(=O)NCC(F)(F)F)[C@H]([C@H](O)[C@H](O)CNC(=O)Cc2ccc(Cl)cc2)O1 [Compound 193, (2R,4S,5R,6R)-6-((1R,2R)-3-(2-(4-chlorophenyl)acetamido)-1,2-dihydroxypropyl)-4-hydroxy-2-((6-(prop-2-yn-1-yloxy)hexyl)oxy)-5-(3-(2,2,2-trifluoroethyl)ureido)tetrahydro-2H-pyran-2-carboxylic acid]
1 to 10 µM | 1 to 10 µM | 1 to 10 µM | C#CCOCCOCCO[C@]1(C(=O)O)C[C@H](O)[C@@H](NC(=O)CO)[C@H]([C@H](O)[C@H](O)CNC(=O)Cc2ccc(OC)cc2)O1 [Compound 174, (2R,4S,5R,6R)-6-((1R,2R)-1,2-dihydroxy-3-(2-(4-methoxyphenyl)acetamido)propyl)-4-hydroxy-5-(2-hydroxyacetamido)-2-(2-(2-(prop-2-yn-1-yloxy)ethoxy)ethoxy)tetrahydro-2H-pyran-2-carboxylic acid]
< 1 µM | < 1 µM | 1 to 10 µM | C#CCOCCCCCCO[C@]1(C(=O)O)C[C@H](O)[C@@H](NC(N)=O)[C@H]([C@H](O)[C@H](O)CNC(=O)Cc2ccc(Cl)cc2)O1 [Cpd. 86, (2R,4S,5R,6R)-6-((1R,2R)-3-(2-(4-chlorophenyl)acetamido)-1,2-dihydroxypropyl)-4-hydroxy-2-((6-(prop-2-yn-1-yloxy)hexyl)oxy)-5-ureidotetrahydro-2H-pyran-2-carboxylic acid]
1 to 10 µM | < 1 µM | < 1 µM | C#CCOCCCCCCO[C@]1(C(=O)O)C[C@H](O)[C@@H](NC(=O)CO)[C@H]([C@H](O)[C@H](O)CNC(=O)Cc2ccc(C(C)(C)C)cc2)O1 [Compound 160, (2R,4S,5R,6R)-6-((1R,2R)-3-(2-(4-(tert-butyl)phenyl)acetamido)-1,2-dihydroxypropyl)-4-hydroxy-5-(2-hydroxyacetamido)-2-((6-(prop-2-yn-1-yloxy)hexyl)oxy)tetrahydro-2H-pyran-2-carboxylic acid]
< 1 µM | 1 to 10 µM | 1 to 10 µM | C#CCCOc1ccc(CO[C@]2(C(=O)O)C[C@H](O)[C@@H](N)[C@H]([C@H](O)[C@H](O)CNC(=O)Cc3ccc(-c4ccc(O)cc4)cc3)O2)cc1 [Compound 55, (2R,4S,5R,6R)-5-amino-2-((4-(but-3-yn-1-yloxy)benzyl)oxy)-6-((1R,2R)-1,2-dihydroxy-3-(2-(4′-hydroxy-[1,1′-biphenyl]-4-yl)acetamido)propyl)-4-hydroxytetrahydro-2H-pyran-2-carboxylic acid]
